Assay results as given in US4364958A, “1-Substituted-3-cycloalkyl-sulfonyl-pyrrolidine-2,5-dione derivatives and fungicidal compositions thereof” (Chinoin Gyogyszer es Vegyeszeti Termekek Gyara Rt., priority 1979, dated 1982).
Where two headings read alike, the source gives them in different places.

Assays:
Experiment in all cases: minimal inhibitory concentration in Sabouraud medium
Format in all cases: cell-based
[1] = system: Penicillium digitatum CBS.31948; details: Penicillium digitatum
Excerpt: Penicillium digitatum CBS.31948
(§1) As a medium Saboroud medium was employed.

[2] = system: Trichophyton rubrum CBS.30338; details: Trichophyton rubrum
Excerpt: Trichophyton rubrum CBS.30338
as §1

[3] = system: Saccharomyces cerevisiae OKI.1282; details: Saccharomyces cerevisiae
Excerpt: Saccharomyces cerevisiae OKI.1282
as §1

[4] = system: Aspergillus niger CBS.12648; details: Aspergillus niger
Excerpt: Aspergillus niger CBS.12648
as §1

[5] = system: Epidermophyton floccosum OKI/IV.; details: Epidermophyton floccosum, read-out: minimal inhibitory concentration
Excerpt: Epidermophyton floccosum OKI/IV.
as §1

[6] = system: Sporotrichum schenkii CBS.34035; details: Sporotrichum
Excerpt: Sporotrichum schenkii CBS.34035
as §1

[7] = system: Trichophyton mentagrophytes CBS.50148; details: Trichophyton mentagrophytes, read-out: minimal inhibitory concentration
Excerpt: Trichophyton mentagrophytes CBS.50148
as §1

[8] = system: Candida albicans CBS.562; details: Candida albicans
Excerpt: Candida albicans CBS.562 "2"
as §1

Measured: MIC

O=C1CC(S(=O)(=O)C2CCCCC2)C(=O)N1c1ccccc1[N+](=O)[O-] (stereo not drawn) [1-(o-nitrophenyl)-3-cyclohexyl-sulfonyl-pyrrolidine-2,5-dione]
200 µg/mL: [3]; OKI.1282, 48 h, 48 hours | [4]; CBS.12648, 144 h, 144 hours | [4]; CBS.12648, 288 h, 288 hours
25 µg/mL: [1]; CBS.31948, 72 h, 72 hours
150 µg/mL: [4]; CBS.12648, 72 h, 72 hours | [5]; 288 h | [7]; CBS.50148, 144 h, 144 hours | [7]; CBS.50148, 288 h, 288 hours | [8]; CBS.562, 48 h, 48 hours
10 µg/mL: [6]; CBS.34035, 72 h, 72 hours
100 µg/mL: [3]; OKI.1282, 24 h, 24 hours | [5]; 144 h
50 µg/mL: [1]; CBS.31948, 144 h, 144 hours | [1]; CBS.31948, 288 h, 288 hours | [2]; CBS.30338, 72 h, 72 hours | [2]; CBS.30338, 144 h, 144 hours | [6]; CBS.34035, 144 h, 144 hours | [6]; CBS.34035, 288 h, 288 hours
75 µg/mL: [2]; CBS.30338, 288 h, 288 hours | [5]; 72 h | [7]; CBS.50148, 72 h, 72 hours | [8]; CBS.562, 24 h, 24 hours

Cc1ccccc1N1C(=O)CC(S(=O)(=O)C2CCCCC2)C1=O (stereo not drawn) [1-(o-tolyl)-3-cyclohexyl-sulfonyl-pyrrolidine-2,5-dione]
50 µg/mL: [1]; CBS.31948, 144 h, 144 hours | [1]; CBS.31948, 288 h, 288 hours | [2]; CBS.30338, 288 h, 288 hours | [6]; CBS.34035, 288 h, 288 hours
10 µg/mL: [1]; CBS.31948, 72 h, 72 hours | [2]; CBS.30338, 72 h, 72 hours | [5]; 144 h | [5]; 288 h | [6]; CBS.34035, 72 h, 72 hours | [7]; CBS.50148, 72 h, 72 hours
75 µg/mL: [8]; CBS.562, 24 h, 24 hours
25 µg/mL: [2]; CBS.30338, 144 h, 144 hours | [3]; OKI.1282, 24 h, 24 hours | [3]; OKI.1282, 48 h, 48 hours | [6]; CBS.34035, 144 h, 144 hours | [7]; CBS.50148, 144 h, 144 hours | [7]; CBS.50148, 288 h, 288 hours
100 µg/mL: [4]; CBS.12648, 72 h, 72 hours | [8]; CBS.562, 48 h, 48 hours
150 µg/mL: [4]; CBS.12648, 144 h, 144 hours | [4]; CBS.12648, 288 h, 288 hours
5 µg/mL: [5]; 72 h

O=C1CC(S(=O)(=O)C2CCCCC2)C(=O)N1c1ccc([N+](=O)[O-])cc1 (stereo not drawn) [1-(p-nitrophenyl)-3-cyclohexylsulfonyl-pyrrolidine-2,5-dione]
75 µg/mL: [2]; CBS.30338, 72 h, 72 hours | [2]; CBS.30338, 144 h, 144 hours | [4]; CBS.12648, 72 h, 72 hours | [7]; CBS.50148, 72 h, 72 hours | [8]; CBS.562, 24 h, 24 hours
100 µg/mL: [1]; CBS.31948, 72 h, 72 hours | [5]; 72 h | [7]; CBS.50148, 144 h, 144 hours | [7]; CBS.50148, 288 h, 288 hours
25 µg/mL: [3]; OKI.1282, 24 h, 24 hours | [6]; CBS.34035, 72 h, 72 hours | [6]; CBS.34035, 144 h, 144 hours | [6]; CBS.34035, 288 h, 288 hours
150 µg/mL: [1]; CBS.31948, 144 h, 144 hours | [1]; CBS.31948, 288 h, 288 hours | [2]; CBS.30338, 288 h, 288 hours | [4]; CBS.12648, 144 h, 144 hours | [4]; CBS.12648, 288 h, 288 hours | [5]; 144 h | [5]; 288 h | [8]; CBS.562, 48 h, 48 hours
50 µg/mL: [3]; OKI.1282, 48 h, 48 hours
